We go through 26 molecules from ChEMBL document CHEMBL1126534, “Role of sulfonamide moiety in non-prostanoid txa2 receptor antagonist kt2-962 : modifications of this moiety and the resulting activities” (Bioorg Med Chem Lett, 1993).

The structures appear in SMILES notation.

As a reminder, the IC50 is the concentration that inhibits the measured activity by half. A lower IC50 goes with inhibition by little substance.

Assay [1] concerns the target T1, Thromboxane A2 receptor (Rattus norvegicus, UniProt P34978).
T1 sequence (P34978 whole entry): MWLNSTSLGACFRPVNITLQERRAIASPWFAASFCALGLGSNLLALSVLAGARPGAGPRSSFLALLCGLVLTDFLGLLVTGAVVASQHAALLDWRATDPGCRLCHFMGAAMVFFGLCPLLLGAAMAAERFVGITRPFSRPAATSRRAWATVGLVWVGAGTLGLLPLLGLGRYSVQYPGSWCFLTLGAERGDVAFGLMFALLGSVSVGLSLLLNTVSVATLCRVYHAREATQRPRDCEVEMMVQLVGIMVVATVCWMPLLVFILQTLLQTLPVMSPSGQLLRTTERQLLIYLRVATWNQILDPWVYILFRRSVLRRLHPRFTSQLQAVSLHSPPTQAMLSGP
The assay is described as follows: Tested for antagonistic activity on isolated rat thoracic aorta (thromboxane A2 receptor) precontracted by U-46619 (3 x 10 e-8 M). The format is functional, tissue-based.

The species entered for assay [2] is Oryctolagus cuniculus. Nature of the assay: Tested for 50% maximal aggregation of rabbit platelet-rich plasma induced by 4 x 10 e-6 M U-46619. The format is functional.
Assay [3] has as its target T1, Thromboxane A2 receptor. Nature of the assay: Tested for antagonistic activity on isolated rat thoracic aorta (TXA2 receptor) precontracted by U-46619 (3 x 10 e-8 M). The format is functional, tissue-based.

In assay [1], `CC(C)c1ccc2c(CCCCNS(=O)(=O)c3ccc(Cl)cc3)cc(S(=O)(=O)O)c-2cc1` displayed an IC50 of 0.0009 µM.

Turning to `CC(C)c1ccc2c(CCC/C=N/N=C(\S)Nc3ccc(Cl)cc3)cc(C(=O)O)c-2cc1`, in assay [1], the IC50 was above 100 µM.

As for `CC(C)c1ccc2c(CCC/C=N/NC(=O)Nc3ccc(Cl)cc3)cc(C(=O)O)c-2cc1`, the IC50 in assay [1] is above 100 µM.

For `CC(C)c1ccc2c(CCCCCS(=O)(=O)Nc3ccccc3)cc(C(=O)O)c-2cc1`, the IC50 in assay [1] turned out to be 1.5 µM.

`CC(C)c1ccc2c(CCC/C=N\NC(=O)Nc3ccccc3)cc(C(=O)O)c-2cc1`: the results for the IC50 in assay [1] and in assay [2] were above 100 µM and above 1000 µM, respectively.

`CC(C)c1ccc2c(CNC(=O)CNC(=O)c3ccccc3)cc(C(=O)O)c-2cc1`: the IC50 in assay [3] is above 100 µM; in assay [2], above 1000 µM.

For `CC(C)c1ccc2c(CCCCS(=O)(=O)Nc3ccc(Cl)cc3)cc(C(=O)O)c-2cc1`, the IC50 in assay [1] was 2.6 µM; in assay [2], above 1000 µM.

For the molecule `CC(C)c1ccc2c(CCCC(=O)NS(=O)(=O)c3ccc(Cl)cc3)cc(S(=O)(=O)O)c-2cc1`, the IC50 is 54 µM in assay [1] and 56 µM in assay [2].

As for `CC(C)c1ccc2c(CCCCS(=O)(=O)Nc3ccc(Cl)cc3)cc(S(=O)(=O)O)c-2cc1`, the IC50 is 0.22 µM in assay [1] and above 1000 µM in assay [2].

Regarding `CC(C)c1ccc2c(CCCC(=O)NS(=O)(=O)c3ccccc3)cc(C(=O)O)c-2cc1`, the IC50 in assay [1] was above 100 µM.

As for `CC(C)c1ccc2c(CCCS(=O)(=O)Nc3ccc(Cl)cc3)cc(S(=O)(=O)O)c-2cc1`, the IC50 in assay [1] was 0.86 µM.

For the molecule `CC(C)c1ccc2c(CCCCS(=O)(=O)Nc3ccccc3)cc(C(=O)O)c-2cc1`, in assay [1], the IC50 amounted to 8.7 µM.

Consider `CC(C)c1ccc2c(CNC(=O)CNS(=O)(=O)c3ccccc3)cc(C(=O)O)c-2cc1`, for which the IC50 in assay [1] is above 100 µM; in assay [2] it was above 1000 µM.

The molecule `CC(C)c1ccc2c(CNC(=O)CNS(=O)(=O)c3ccc(Cl)cc3)cc(C(=O)O)c-2cc1` came in with a 50% inhibitory concentration (IC50) in assay [1] above 100 µM.

`CC(C)c1ccc2c(CNC(=O)CNC(=O)c3ccc(Cl)cc3)cc(C(=O)O)c-2cc1`: in assay [1], the IC50 is above 100 µM.

Turning to `CC(C)c1ccc2c(CCCC(=O)NS(=O)(=O)c3ccc(Cl)cc3)cc(C(=O)O)c-2cc1`, the IC50 was 19 µM in assay [1] and above 1000 µM in assay [2].

The molecule `CC(C)c1ccc2c(CCCC(=O)NS(=O)(=O)c3ccccc3)cc(S(=O)(=O)O)c-2cc1` registered an IC50 in assay [1] of 65 µM.

In assay [1], `CC(C)c1ccc2c(CCCCCS(=O)(=O)Nc3ccc(Cl)cc3)cc(S(=O)(=O)O)c-2cc1` had an IC50 of 0.86 µM.

`CC(C)c1ccc2c(CCCS(=O)(=O)Nc3ccccc3)cc(S(=O)(=O)O)c-2cc1`: the IC50 in assay [1] is 8.7 µM.

In turn, `CC(C)c1ccc2c(CCCCCS(=O)(=O)Nc3ccccc3)cc(S(=O)(=O)O)c-2cc1` gave a half-maximal inhibitory concentration (IC50) in assay [1] of 1.4 µM.

Consider `CC(C)c1ccc2c(CCC/C=N/N=C(\S)Nc3ccccc3)cc(C(=O)O)c-2cc1`, for which the IC50 in assay [1] is 590 µM; in assay [2], above 1000 µM.

For the molecule `CC(C)c1ccc2c(CCCS(=O)(=O)Nc3ccc(Cl)cc3)cc(C(=O)O)c-2cc1`, it took 9.1 µM to reach half-maximal inhibition in assay [1] (IC50).

In turn, `CC(C)c1ccc2c(CCCCCS(=O)(=O)Nc3ccc(Cl)cc3)cc(C(=O)O)c-2cc1` came in with an IC50 in assay [1] of 1.7 µM.

`CC(C)c1ccc2c(CCCCS(=O)(=O)Nc3ccccc3)cc(S(=O)(=O)O)c-2cc1` returned an IC50 in assay [1] of 1.5 µM.

For the molecule `CC(C)c1ccc2c(CCCS(=O)(=O)Nc3ccccc3)cc(C(=O)O)c-2cc1`, the half-maximal inhibitory concentration (IC50) in assay [1] is 12 µM.

In the case of `O=C(O)COc1ccc(CCNS(=O)(=O)c2ccccc2)cc1` [SULOTROBAN], the IC50 in assay [1] was 1.5 µM.
